Values joined by “and” are separate entries in the source; they are usually repeats but may differ in a detail not shown here. Equal values may be shown once.
Legend:
CLP-induced sepsis rats [1] = settings: day 2 after CLP surgery
Description: (§1) Sepsis was developed by cecal ligation puncture model (CLP) as described in several papers (Li G et al, Clin Exp Pharmacol Physiol. 2014; 41(7):459-68, Seija M et al, Shock. 2012; 38(4):403-10). Animals were anesthetized with ketamine (Ketolar 50 mg/ml) 90 mg/kg intraperitoneal (ip) and diazepam (Valium 10 mg/2 mL) 5 mg/kg ip. Under sterile conditions a 3-cm midline laparotomy was performed to allow exposure of the cecum, and a 4-0 silk ligature was placed 0.75 cm from the cecal tip. It was punctured once with a 14-gauge needle. A second ligature was placed 1.5 cm proximal to the first one and distal to the ileocecal valve to avoid intestinal obstruction. Three punctures were made in the cecum between the two ligatures with a 16-gauge needle. The cecum was gently squeezed until a 1-mm column of fecal material was exteriorized. The bowel was then returned to the abdomen and the incision was closed in layers. A sham operation (laparotomy and cecal exposure without any other manipulation) was performed as control. At the end of the operation, all rats were resuscitated with normal saline (50 ml/kg body weight) subcutaneously in a single dose and analgesic treatment with buprenorphine (buprex 0.3 mg/ml) 0.1 mg/kg every 12 hours immediately after surgery and until the day of killing.
(§2) In the treatment groups, the rats were treated with cilastatin 150 mg/kg ip immediately and at 24 h after induction of sepsis or the sham-operation. Cilastatin was substituted by vehicle (0.5 mL/100 g) in the non-treatment groups. […] All animals were then placed in the metabolic cages for 24-h urine collection.
(§3) Forty-eight (48) hours after the sepsis-induction/sham-operation, all rats were anesthetized with ketamine (10 mg/kg) and diazepam (4 mg/kg) and killed. Blood samples were collected by insertion of a cannula into the abdominal aorta, and serum was isolated by centrifugation in ACUETTE® Z Serum Sep Clot Activator tubes (Greiner bio-one), at 2000 rpm for 15 h at 4° C., and then stored at −80° C. until use. The kidneys were perfused with cold saline and quickly removed. […]

[2] = system: kidney tubular cell apoptosis; settings: kidneys of septic rats
Description: as §1, §2, §3

[3] = septic rats
Description: as §1, §2, §3

CLP-induced sepsis rats [4] = system: CLP-induced sepsis rats
Description: as §1

cleaved caspase-8 = settings: septic rats; Western blot
Description: as §1, with “At the end of the operation, all rats were resuscitated with normal saline (50 ml/kg body weight) subcutaneously in a single dose and analgesic treatment with buprenorphine (buprex 0.3 mg/ml) 0.1 mg/kg every 12 hours immediately after surgery and until the day of killing.” left out
(§4) Western blotting was performed as described previously (Humanes B et al, Kidney International. 2012; 82(6):652-663). […] All signals were visualized with an Alliance 4.7 (Uvitec, Cambridge, UK) and analyzed by densitometric scanning (ImageJ; http://rsbweb.nih.gov/ij/index.html). […]

FasL = settings: septic rats; Western blot
Description: as §1, with “At the end of the operation, all rats were resuscitated with normal saline (50 ml/kg body weight) subcutaneously in a single dose and analgesic treatment with buprenorphine (buprex 0.3 mg/ml) 0.1 mg/kg every 12 hours immediately after surgery and until the day of killing.” left out
as §4

cleaved caspase-3 = settings: septic rats; immunohistochemistry and Western blot of the renal cortex
Description: as §1
(§5) Immunohistochemistry was carried out as described previously (Humanes B et al, Kidney International. 2012; 82(6):652-663). […] The surface area labeled by antibodies was evaluated by quantitative image analysis as previously described (Lazaro A. et al. Antiox Redox Signal. 2005; 7:1285-1293). In brief, the percentage of the stained area was calculated as the ratio of suitable binary thresholded image and the total field area. […]
as §4

KIM-1 = settings: sepsis+cil vs control (SHAM) levels; immunohistochemistry and Western blot; 48 h
Description: as §1, §5, §4

Cu/Zn SOD = settings: septic rats; immunohistochemistry and Western blotting
Description: as §1, §5, §4

VCAM-1 = settings: septic rats; immunohistochemistry
Description: as §1
(§6) Immunohistochemistry was carried out as described previously (Humanes B et al, Kidney International. 2012; 82(6):652-663). The primary antibodies used were polyclonal goat anti-rat TIM-1/KIM-1/HAVCR (1:20; R&D systems); anti-cleaved caspase-3 (Asp175) (1:50; Cell Signaling Technology, Inc., Beverly, Mass.) mouse monoclonal anti-4-HNE (1:75; Oxis International Inc., Foster City, Calif.); polyclonal rabbit anti-Cu/Zn SOD (1:1000; Assay Designs, Stressgen, Ann Arbor, Mich., USA); monoclonal mouse anti-CD68 (monocyte/macrophage, 1:125, Abd Serotec, Oxford, UK); polyclonal goat anti-VCAM-1 (1:100; Santa Cruz Biotechology, Inc., Beverly, Mass., USA); polyclonal rabbit anti-TGFβ1 antibody (1:100; Santa Cruz Biotechnology); monoclonal mouse anti-ICAM-1 (1:100; Santa Cruz). […] The surface area labeled by antibodies was evaluated by quantitative image analysis as previously described (Lazaro A. et al. Antiox Redox Signal. 2005; 7:1285-1293). In brief, the percentage of the stained area was calculated as the ratio of suitable binary thresholded image and the total field area. For each sample, the mean staining area was obtained by analysis of the entire sample.
as §2
(§7) Forty-eight (48) hours after the sepsis-induction/sham-operation, all rats were anesthetized with ketamine (10 mg/kg) and diazepam (4 mg/kg) and killed. Blood samples were collected by insertion of a cannula into the abdominal aorta, and serum was isolated by centrifugation in ACUETTE® Z Serum Sep Clot Activator tubes (Greiner bio-one), at 2000 rpm for 15 h at 4° C., and then stored at −80° C. until use. The kidneys were perfused with cold saline and quickly removed. Kidney samples were snap-frozen in liquid nitrogen and kept at −80° C. or fixed in 4% paraformaldehyde (24 h) and paraffin-embedded for the different studies.

CD68 = settings: cilastatin-treated septic rats compared to the sepsis group
Description: as §1, §6, §2, §7

ICAM-1 = settings: septic rats; immunohistochemistry
Description: as §1, §6, §2, §7

TGFβ = settings: septic animals; immunohistochemistry
Description: as §1, §6, §2, §7

4-HNE = settings: septic rats
Description: as §1, §6, §2, §7

CLP-induced sepsis rats [5] = system: CLP-induced sepsis rats; remark: listed apart in the source
Description: as §1
Serum creatinine, blood urea nitrogen levels (BUN), proteins and other parameters were measured using the Dimension RxL autoanalyzer (Dade-Behring, Siemens, Eschborn, Germany). The glomerular filtration rate was calculated using the creatinine clearance rate.
The animals were randomly allocated into four groups (n=10 in each group): • i. sham-operated group, • ii. CLP group, • iii. sham-operated group+cilastatin, and • iv. CLP group+cilastatin.
as §2, §7

[6] = sepsis+cil group, 48 hours after induction of sepsis, cilastatin 150 mg/kg ip immediately and at 24 h, mean±s.e.m.

CC1(C)C[C@@H]1C(=O)N/C(=C\CCCCSC[C@H](N)C(=O)O)C(=O)O [cilastatin, (Z)-7-[(2R)-2-Amino-3-hydroxy-3-oxopropyl]sulfanyl-2-{[(1S)-2,2-dimethylcyclopropanecarbonyl]amino}hept-2-enoic acid]
Semi-quantitative renal injury score (CLP-induced sepsis rats [1]): reduced the renal injury score
Number of TUNEL-positive cells [2]: significantly decreased
Antioxidant capacity in urine [3]: improved
Decrease in mortality (CLP-induced sepsis rats [4]; cilastatin vs CLP plus vehicle, 48 h after CLP): 33% and 30%
Mortality (%) (CLP-induced sepsis rats [4]; sepsis+cil group, monitored for 48 h after CLP, cilastatin 150 mg/kg immediately and at 24 h, 6 rats per group, sepsis vehicle group 83%): 50%
Renal cortex cleaved caspase-8 (cleaved caspase-8): attenuated
Renal cortex FasL (FasL): attenuated
Elevated caspase-3 levels (cleaved caspase-3): significantly lowered
KIM-1 protein level (KIM-1): partially restored
Cu/Zn SOD expression in renal cortex (Cu/Zn SOD): able to restore its expression
Sepsis-induced increase of VCAM-1 expression (VCAM-1): significantly reduced
CD68 positive cells in renal samples (CD68): fewer
Sepsis-induced increase of ICAM-1 expression (ICAM-1): significantly reduced
TGFβ1 levels in renal tissue (TGFβ): significantly decreased
Sepsis-enhanced 4-HNE staining in the kidneys (4-HNE): completely prevented
Protein excretion (CLP-induced sepsis rats [5]; CLP group with cilastatin vs CLP group, 48 h): significantly reduced
Proteinuria (CLP-induced sepsis rats [5]; sepsis+cil group (fourth value, group not labelled), 48 hours, cilastatin 150 mg/kg ip, mean±s.e.m.): 1889±347
Blood urea nitrogen (CLP-induced sepsis rats [5]; [6]): 75±7
Serum creatinine (CLP-induced sepsis rats [5]; [6]): 0.38±0.02
Glomerular filtration rate (CLP-induced sepsis rats [5]; sepsis+cil group, 48 hours, calculated using the creatinine clearance rate, cilastatin 150 mg/kg ip, mean±s.e.m.): 0.45±0.07
Sepsis-induced dysfunctions: serum BUN and creatinine increase, glomerular filtration rate decrease (CLP-induced sepsis rats [5]; septic animals, cilastatin 150 mg/kg ip, 48 h): totally prevented
